Here are results for eight molecules from US12365655B2, “Compounds” (CTXT PTY LTD, priority 2018, dated 2025).

Some results are limits rather than exact numbers.

Assay [1] concerns acetylation of the histone H3K23 marker in U2OS cells. The experiment in a line: Histone H3 Lysine 23 Acetylation Biomarker Assay. The class given is cell-based. To be noted: Homo sapiens, 24 hours incubation, read-out: IC50, inhibition of histone H3K23 acetylation. The method, then: Compounds were tested for their ability to inhibit acetylation of the histone H3K23 marker in the following assay:
The cell line U2OS was seeded at a density of 9,000 cells per well in 96 well optical quality tissue culture plates in RPMI medium and 10% foetal bovine serum, and allowed to adhere for 24 hours under standard culture conditions (37 degree Celsius, 5% CO2). At the end of this period the medium was aspirated. […] After incubation for 24 hours, the cells were fixed with 3.7% formaldehyde in PBS for 20 minutes at room temperature, washed (5×5 minutes) with phosphate buffer saline containing 0.1% Tween 20 and blocked with Odyssey blocking buffer (LI-COR, Lincoln, Nebr.) containing 0.1% TritonX100. Anti-H3K23ac specific antibody (Abcam ab177275) in Odyssey blocking buffer containing 0.1% Tween 20 was added and incubated for 16 hours at 4 degree Celsius. After washing (as above), a secondary antibody labelled with Alexa647 dye (LifeTechnologies) and Hoechst 33342 (1 μg/mL, SigmaAldrich) were added for 1 hour incubation. Plates were washed as previously and read on a PerkinElmer Phenix high content imaging platform. Using a Columbus image analysis pipeline, individual nuclei were located by Hoechst 33342 stain and the acetylation level was calculated from the Alexa647-related intensity in the same area.

In another assay the target is TIP60-KAT5 (Homo sapiens, UniProt Q92993). The assay can be described thus: Acetyltransferase biochemical assay (AlphaScreen), KAT5. (In Alpha technology, singlet oxygen from a donor bead excites a nearby acceptor bead.)
Sequence of TIP60-KAT5 (Q92993 with tags, fused parts or gaps isoform Q92993-2): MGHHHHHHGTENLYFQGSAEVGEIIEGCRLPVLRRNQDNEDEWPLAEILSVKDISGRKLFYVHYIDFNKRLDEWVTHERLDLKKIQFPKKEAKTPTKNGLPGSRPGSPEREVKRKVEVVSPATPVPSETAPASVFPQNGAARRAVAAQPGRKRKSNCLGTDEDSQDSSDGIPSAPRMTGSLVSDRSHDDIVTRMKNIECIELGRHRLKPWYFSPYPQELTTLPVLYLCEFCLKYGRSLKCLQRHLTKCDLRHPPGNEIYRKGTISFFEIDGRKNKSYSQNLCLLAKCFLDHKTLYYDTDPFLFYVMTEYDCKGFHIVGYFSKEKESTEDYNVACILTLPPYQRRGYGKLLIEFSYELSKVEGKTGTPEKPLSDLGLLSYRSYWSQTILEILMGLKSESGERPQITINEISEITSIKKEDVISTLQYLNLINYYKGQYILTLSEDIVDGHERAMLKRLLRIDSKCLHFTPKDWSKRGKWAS
A further assay concerns the target T1, QKF-KAT6B (Homo sapiens, UniProt Q8WYB5).
T1 construct: purchased SignalChem K315-381BG
The assay can be described thus: Acetyltransferase biochemical assay (AlphaScreen), KAT6B. To be noted: 8 nM KAT6B, 1 μM AcCoA, 100 nM histone H3.1. The source says:
KAT6B was obtained from SignalChem, catalog ID: K315-381BG

For assay [2], the system named is acetylation of the histone H3 Lysine 14 marker in U2OS cells. The assay can be described thus: Histone H3 Lysine 14 Acetylation Biomarker Assay. The class given is cell-based. Conditions: Homo sapiens, serum free medium, 24 hours incubation, read-out: IC50, inhibition of histone H3 Lysine 14 acetylation.
The target in a further assay is T2, MOF-KAT8 (Homo sapiens, UniProt Q9H7Z6).
T2 sequence (Q9H7Z6 with tags, fused parts or gaps): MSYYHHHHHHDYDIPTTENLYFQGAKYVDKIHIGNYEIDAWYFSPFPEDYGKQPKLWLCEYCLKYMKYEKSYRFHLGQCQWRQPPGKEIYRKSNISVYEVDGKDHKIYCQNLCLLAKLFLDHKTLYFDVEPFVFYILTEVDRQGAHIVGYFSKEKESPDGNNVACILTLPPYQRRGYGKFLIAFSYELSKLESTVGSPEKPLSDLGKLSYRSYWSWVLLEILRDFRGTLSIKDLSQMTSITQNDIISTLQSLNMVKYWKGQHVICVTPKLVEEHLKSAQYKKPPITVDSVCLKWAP
The experiment in a line: biochemical.

In assay [3] the test system is histone H2A.Z Lysine 7 acetylation marker in U2OS cells. The assay can be described thus: H2A.Z Lysine 7 Acetylation Biomarker Assay. The class given is cell-based. To be noted: Homo sapiens, serum free medium, 24 hours incubation, read-out: IC50, inhibition of histone H2A.Z Lysine 7 acetylation.
The target in the next assay is MOZ-KAT6A (Homo sapiens, UniProt Q92794, A567V). The assay can be described thus: Acetyltransferase biochemical assay (AlphaScreen), KAT6A.
Sequence of MOZ-KAT6A (Q92794 with tags, fused parts or gaps A567V): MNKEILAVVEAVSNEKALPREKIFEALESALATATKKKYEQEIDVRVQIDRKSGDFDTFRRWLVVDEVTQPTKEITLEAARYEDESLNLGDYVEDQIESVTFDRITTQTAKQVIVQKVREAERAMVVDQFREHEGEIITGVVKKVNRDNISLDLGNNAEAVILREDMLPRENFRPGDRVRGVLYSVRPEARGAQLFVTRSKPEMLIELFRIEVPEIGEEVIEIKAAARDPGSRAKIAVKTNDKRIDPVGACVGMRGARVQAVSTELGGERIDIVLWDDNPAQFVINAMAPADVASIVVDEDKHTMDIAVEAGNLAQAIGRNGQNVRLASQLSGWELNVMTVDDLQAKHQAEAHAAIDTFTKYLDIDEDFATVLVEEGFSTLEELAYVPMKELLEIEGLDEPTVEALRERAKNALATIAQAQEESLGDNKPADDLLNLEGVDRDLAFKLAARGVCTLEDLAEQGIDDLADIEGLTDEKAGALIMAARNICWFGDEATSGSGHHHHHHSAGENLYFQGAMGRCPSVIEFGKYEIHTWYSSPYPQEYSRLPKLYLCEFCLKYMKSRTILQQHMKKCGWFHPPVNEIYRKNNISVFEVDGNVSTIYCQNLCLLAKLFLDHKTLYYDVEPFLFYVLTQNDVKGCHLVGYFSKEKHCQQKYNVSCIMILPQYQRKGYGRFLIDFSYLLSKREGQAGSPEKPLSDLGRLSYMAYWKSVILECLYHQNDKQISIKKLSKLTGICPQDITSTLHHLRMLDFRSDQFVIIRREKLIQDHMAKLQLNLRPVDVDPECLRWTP
The target in the next assay is HBO-KAT7 (Homo sapiens, UniProt O95251). The assay can be described thus: Acetyltransferase biochemical assay (AlphaScreen), KAT7.
Sequence of HBO-KAT7 (O95251 with tags, fused parts or gaps): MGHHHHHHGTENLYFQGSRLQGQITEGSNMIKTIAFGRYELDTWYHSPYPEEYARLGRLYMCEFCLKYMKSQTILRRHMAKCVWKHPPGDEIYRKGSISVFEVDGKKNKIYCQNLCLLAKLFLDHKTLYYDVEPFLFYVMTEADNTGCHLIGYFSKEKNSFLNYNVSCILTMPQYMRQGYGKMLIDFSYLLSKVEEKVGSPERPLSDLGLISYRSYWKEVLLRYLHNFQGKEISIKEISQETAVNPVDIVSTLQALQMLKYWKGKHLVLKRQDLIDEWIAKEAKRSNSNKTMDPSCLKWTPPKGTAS

T1 sequence (Q8WYB5 whole entry): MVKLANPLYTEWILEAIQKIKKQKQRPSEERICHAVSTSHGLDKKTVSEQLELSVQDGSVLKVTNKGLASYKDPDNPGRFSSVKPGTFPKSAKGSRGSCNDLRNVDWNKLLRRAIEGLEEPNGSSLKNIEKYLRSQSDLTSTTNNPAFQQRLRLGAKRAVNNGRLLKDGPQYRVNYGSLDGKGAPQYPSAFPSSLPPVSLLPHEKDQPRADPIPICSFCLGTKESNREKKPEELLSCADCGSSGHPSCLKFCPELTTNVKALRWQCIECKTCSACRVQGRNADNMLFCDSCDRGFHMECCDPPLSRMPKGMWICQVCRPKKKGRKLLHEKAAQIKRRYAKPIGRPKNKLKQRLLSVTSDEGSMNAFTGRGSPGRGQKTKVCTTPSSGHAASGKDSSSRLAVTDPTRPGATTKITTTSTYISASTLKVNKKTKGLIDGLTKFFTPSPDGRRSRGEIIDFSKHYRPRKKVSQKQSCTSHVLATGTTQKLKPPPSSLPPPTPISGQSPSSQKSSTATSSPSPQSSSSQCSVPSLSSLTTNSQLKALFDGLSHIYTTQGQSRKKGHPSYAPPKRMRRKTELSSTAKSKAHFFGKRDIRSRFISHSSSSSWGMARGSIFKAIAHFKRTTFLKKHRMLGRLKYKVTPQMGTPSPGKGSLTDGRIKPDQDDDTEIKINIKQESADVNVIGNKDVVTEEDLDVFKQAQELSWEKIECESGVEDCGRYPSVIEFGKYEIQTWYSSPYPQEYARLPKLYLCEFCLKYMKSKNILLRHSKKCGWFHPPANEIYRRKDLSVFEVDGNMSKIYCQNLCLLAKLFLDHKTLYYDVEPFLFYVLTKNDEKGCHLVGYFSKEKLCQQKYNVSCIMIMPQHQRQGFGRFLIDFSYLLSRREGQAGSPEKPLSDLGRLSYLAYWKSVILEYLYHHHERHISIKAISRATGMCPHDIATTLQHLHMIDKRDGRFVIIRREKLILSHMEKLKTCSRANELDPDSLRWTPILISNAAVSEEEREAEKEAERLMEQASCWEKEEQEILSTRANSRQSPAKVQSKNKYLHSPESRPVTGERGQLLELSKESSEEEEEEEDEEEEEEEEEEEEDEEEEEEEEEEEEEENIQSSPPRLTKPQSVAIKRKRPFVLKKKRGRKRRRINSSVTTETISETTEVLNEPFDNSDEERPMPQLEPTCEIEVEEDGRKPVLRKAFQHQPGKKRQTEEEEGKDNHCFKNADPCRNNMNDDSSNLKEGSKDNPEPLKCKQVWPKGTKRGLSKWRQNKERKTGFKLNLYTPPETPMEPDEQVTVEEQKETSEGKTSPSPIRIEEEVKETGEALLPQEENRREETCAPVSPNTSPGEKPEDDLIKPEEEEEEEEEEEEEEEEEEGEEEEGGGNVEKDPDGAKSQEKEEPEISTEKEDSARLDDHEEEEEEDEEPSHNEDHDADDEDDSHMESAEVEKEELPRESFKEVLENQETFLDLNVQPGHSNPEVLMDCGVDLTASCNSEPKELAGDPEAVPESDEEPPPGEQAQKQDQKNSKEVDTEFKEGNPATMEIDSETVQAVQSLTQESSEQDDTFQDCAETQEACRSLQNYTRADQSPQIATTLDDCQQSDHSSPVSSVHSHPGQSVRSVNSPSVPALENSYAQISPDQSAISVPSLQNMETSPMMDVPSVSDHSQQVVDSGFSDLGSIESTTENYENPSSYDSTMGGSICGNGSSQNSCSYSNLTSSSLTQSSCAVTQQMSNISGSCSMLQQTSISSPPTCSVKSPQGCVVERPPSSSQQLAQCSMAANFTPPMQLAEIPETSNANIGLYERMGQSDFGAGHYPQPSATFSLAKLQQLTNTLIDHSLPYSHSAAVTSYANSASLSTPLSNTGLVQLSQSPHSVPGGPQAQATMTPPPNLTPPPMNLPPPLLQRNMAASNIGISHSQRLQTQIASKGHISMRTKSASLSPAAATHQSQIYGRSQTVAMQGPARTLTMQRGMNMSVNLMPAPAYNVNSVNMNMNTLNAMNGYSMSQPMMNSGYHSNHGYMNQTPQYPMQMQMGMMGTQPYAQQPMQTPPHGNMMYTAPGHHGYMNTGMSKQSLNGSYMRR

What is called IC50 is the concentration needed to halve the response being measured. On to `CCc1ccc(OC)c(S(=O)(=O)Nc2noc3c(-c4ccccc4)cccc23)c1` [Example 178, 5-Ethyl-2-methoxy-N-(7-phenylbenzo[d]isoxazol-3-yl)benzenesulfonamide], for which the IC50 in assay [1] is more than 10000 nM; against TIP60-KAT5, 7540 nM; on QKF-KAT6B it was 2460 nM; in assay [2], 3070 nM; on MOF-KAT8 it was 770 nM; in assay [3], 5590 nM. In addition, the results for the IC50 against MOZ-KAT6A and against HBO-KAT7 were 1440 nM and 482 nM, respectively.

Regarding `COCc1cc2onc(NS(=O)(=O)c3ccc(OC)cc3OC)c2cc1C` [Example 166, 2,4-dimethoxy-N-(6-(methoxymethyl)-5-methylbenzo[d]isoxazol-3-yl)benzenesulfonamide], the IC50 turned out to be 398 nM in assay [1]; 3090 nM against TIP60-KAT5; 227 nM at QKF-KAT6B; 3690 nM in assay [2]; 2920 nM at MOF-KAT8; 33300 nM in assay [3]. For the same molecule, the IC50 against MOZ-KAT6A is 123 nM; against HBO-KAT7, 328 nM.

With `COc1cc(-c2ccccc2)cc(OC)c1S(=O)(=O)Nc1noc2cccc(OC)c12` [Example 95, 3,5-Dimethoxy-N-(4-methoxybenzo[d]isoxazol-3-yl)-[1,1-biphenyl]-4-sulfonamide], the IC50 was more than 10000 nM in assay [1]; 14000 nM against TIP60-KAT5; 1640 nM at QKF-KAT6B; 9090 nM in assay [2]; 6450 nM against MOF-KAT8; more than 40000 nM in assay [3]. The results for the IC50 on MOZ-KAT6A and at HBO-KAT7 were 430 nM and 754 nM, respectively.

As to `COCc1cc(OC)c2c(NS(=O)(=O)c3ccc(OC)c4cccnc34)noc2c1` [Example 162, 5-methoxy-N-(4-methoxy-6-(methoxymethyl)benzo[d]isoxazol-3-yl)quinoline-8-sulfonamide], the IC50 in assay [1] was found to be 144 nM; against TIP60-KAT5, 14000 nM; at QKF-KAT6B, 180 nM; in assay [2], 1530 nM; against MOF-KAT8, 10600 nM; in assay [3], 29500 nM. For the same molecule, the IC50 amounted to 147 nM against MOZ-KAT6A and 969 nM at HBO-KAT7.

Turning to `COc1cccc2onc(NS(=O)(=O)c3cccc4cc(C)cnc34)c12` [Example 73, N-(4-methoxybenzo[d]isoxazol-3-yl)-3-methyl quinoline-8-sulfonamide], the IC50 in assay [1] was more than 10000 nM; against TIP60-KAT5, 2160 nM; on QKF-KAT6B it was 4050 nM; in assay [2], 12500 nM; at MOF-KAT8, 3460 nM; in assay [3], 36700 nM. In addition, the IC50 at MOZ-KAT6A worked out at 4550 nM; against HBO-KAT7, 508 nM.

As to `COCc1cc(OC)c2c(NS(=O)(=O)c3c(OC)cccc3OC)noc2c1` [Example 173, 2,6-Dimethoxy-N-(4-methoxy-6-(methoxymethyl)benzo[d]isoxazol-3-yl)benzenesulfonamide], the IC50 in assay [1] came to 20 nM; against TIP60-KAT5 it was 4050 nM; against QKF-KAT6B, 40 nM; in assay [2], 533 nM; against MOF-KAT8, 3520 nM; in assay [3] it was 26200 nM. The results for the IC50 against MOZ-KAT6A and against HBO-KAT7 were 15 nM and 169 nM, respectively.

Turning to `COc1cccc(OC)c1S(=O)(=O)Nc1noc2cc(-c3ccccc3)cc(OC)c12` [Example 174, 2,6-Dimethoxy-N-(4-methoxy-6-phenylbenzo[d]isoxazol-3-yl)benzenesulfonamide], the IC50 in assay [1] stood at 17 nM; against TIP60-KAT5, 1830 nM; against QKF-KAT6B, 18 nM; in assay [2], 68 nM; in assay [3] it was 1540 nM; on MOZ-KAT6A, 13 nM. The molecule also gave an IC50 on HBO-KAT7 of 31 nM.

As to `COc1cccc(OC)c1S(=O)(=O)Nc1noc2cc(-c3ccccn3)cc(OC)c12` [Example 146, 2,6-Dimethoxy-N-(4-methoxy-6-(pyridin-2-yl)benzo[d]isoxazol-3-yl)benzenesulfonamide], the half-maximal inhibitory concentration (IC50) in assay [1] worked out at 45 nM; at TIP60-KAT5, 22000 nM; on QKF-KAT6B it was 291 nM; in assay [2] it was 2300 nM; in assay [3], 15100 nM; against MOZ-KAT6A, 153 nM. The molecule further returned an IC50 at HBO-KAT7 of 511 nM.
